Experimental data reported in patent publication US8853353B2, “Membrane type-1 matrix metalloprotein inhibitors and uses thereof” (Angiochem, Inc., priority 2008, dated 2014).

How the values were obtained:
[1] = tested on: GST-MT1-MMP cytoplasmic tail fusion protein (GST-MT); details: recombinant Src kinase, ATP, western blot
Method: The GST-MT1-MMP cytoplasmic tail fusion protein (GST-MT) was incubated with recombinant Src kinase in the presence of ATP and the phosphorylation products were analyzed by western blotting.

[2] = tested on: glioblastoma cells (U-87); details: 3D collagen gel
Method: (§1) Different tumor cell lines were incubated with the peptides and grown atop of a collagen film (2D) or within a collagen gel (3D).

[3] = tested on: fibrosarcoma cells (HT-1080); details: 3D collagen gel
Method: as §1

[4] = tested on: osteosarcoma cells (MG-63); details: bone cancer cells, 3D collagen gel
Method: as §1

[5] = tested on: prostate adinocarcinoma cells (PC-3); details: prostate cancer cells, 3D collagen gel
Method: as §1

[6] = tested on: tumor cell lines; details: grown atop of a collagen film (2D)
Method: as §1

[7] = tested on: medulloblastoma cells (DAOY); details: 3D collagen gel
Method: as §1

[8] = tested on: breast adenocarcinoma cells (MDA-MB-231); details: breast cancer cells, 3D collagen gel
Method: as §1

[9] = tested on: Fibrosarcoma cells implanted subcutaneously; details: 10 mg/kg daily subcutaneous
Method: Fibrosarcoma cells were implanted subcutaneously into the flank of athymic nude mice. […] Mice were given daily subcutaneous administrations of 10 mg/kg of peptides or vehicle.

| Substance | inhibition of Src-mediated tyrosine phosphorylation of GST-MT [1] | reduction of proliferation in 3D matrix [2] | inhibition of 3D proliferation [3] | inhibition of 3D proliferation [4] | inhibition of 3D proliferation [5] | effect on tumor cell proliferation in 2D conditions [6] | reduction of proliferation in 3D matrix [7] | inhibition of 3D proliferation [8] | tumors completely regressed and totally disappeared [9] [%] | reduction of tumor growth ([9]; 26 days post-implantation) [%] |
| --- | --- | --- | --- | --- | --- | --- | --- | --- | --- | --- |
| Biotin-Ahx-RQIKIWFQNRRMKWKK-RRHGTPRRLLFCQRSLLDKV [ACM-14] | completely inhibited | 50% | inhibits | inhibits | inhibits | does not affect | 35% | inhibits | 17 | 70 |
| Biotin-Ahx-RQIKIWFQNRRMKWKK-TLRQRRCLPHFDSGLRKVRL [scACM-14, reference compound] | not observed | no effect | – | – | – | – | no effect | – | – | – |
